Data reported in PMC12196235, “Enhancing the Pharmacological Properties of Triterpenes Through Acetylation: An Anticancer and Antioxidant Perspective” (Molecules, 2025).
Where two headings read alike, the source gives them in different places.

Tests used:
[1] = tested on: RPMI-8226 (human multiple myeloma); settings: ref 47; read-out: anticancer IC50 (RPMI-8226); cited from earlier work
C-6 = settings: ref 47; read-out: anticancer IC50 (C-6); cited from earlier work
PC-3 = assay: Apoptosis assay (Cell Death Detection ELISA Plus), PC-3; type: cell-based, human; settings: PC-3, 4 h incubation, enrichment of mono- and oligonucleosomes vs negative control
Description: (§1) The induction of apoptosis by tested compounds was determined with Cell Death Detection ELISA Plus from Roche Diagnostics GmbH (Mannheim, Germany).
(§2) Cell Death Detection ELISA Plus is an enzyme immunoassay for determining cytoplasmic histone-associated DNA fragments (mono- and […]) after induced cell death. Cells (10^4) were pipetted into wells of 96-well plates, and test compounds were added at final concentrations of 0.1, 1.0 and 10.0 µg × mL^−1. Cells incubated in the absence of test compounds served as negative controls. After 4 h of incubation, cells were harvested by centrifugation of the plates for 10 min at 200× g. Supernatants were removed carefully, and cell pellets were resuspended in 200 µL of cell lysis buffer and incubated for 30 min at room temperature. After centrifugation of the plates (10 min at 200× g), 20 µL of cell lysates was transferred in duplicate into wells of provided streptavidin-coated microplates. Then, 80 µL of the immunoreagent containing a mixture of anti-histone-biotin monoclonal antibody and anti-DNA-peroxidase monoclonal antibody was added to each well. The microplates were covered with a provided adhesive foil and incubated for 2 h at room temperature. Thereafter, the solution in the wells was removed by tapping the microplate. The wells were rinsed three times with incubation buffer, and 100 µL of substrate (2,2′-azino-bis [3-ethylbenzothiazoline-6-sulphonic acid], ABTS) was added to each well. After 10–20 min, 100 µL of ABTS stop solution was pipetted to each well, and the absorbance was read at 405 nm (test wavelength) and 490 nm (reference wavelength). The apoptotic index was calculated based on the enrichment of mono- and oligonucleosomes according to the following equation:apoptotic index = [{A405(sample) − A490(sample)}/{A405(negative control) − A490(negative control)}]

[2] = tested on: T-47D (human breast carcinoma); settings: cited from earlier work; for IC50: read-out: anticancer IC50 (T-47D)
[3] = tested on: A-549 (human lung carcinoma); assay: MTT assay, A-549; type: cell-based
How it was run: (§3)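 Using the MTT method, survival of cancer lines and normal dermal fibroblasts was quantified by formazan formation. Culture: DMEM for HeLa, RPMI 1640 for MCF-7 and A-549, Fibroblast Basal Medium for HDF, with 10% FBS, 37 °C.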

SKOV-3 = assay: Apoptosis assay (Cell Death Detection ELISA Plus), SKOV-3; type: cell-based, human
Description: as §1, §2

[4] = tested on: SKOV-3 (human ovarian carcinoma); assay: MTT assay, SKOV-3; type: cell-based
[5] = tested on: Jurkat 1E.6 (human T cell leukemia); settings: ref 47; read-out: anticancer IC50 (Jurkat 1E.6); cited from earlier work
[6] = tested on: FTC-238 (human thyroid carcinoma); settings: ref 47; read-out: anticancer IC50 (FTC-238); cited from earlier work
[7] = tested on: HDF (human dermal fibroblasts); assay: MTT assay, normal HDF; type: cell-based; settings: Homo sapiens, Fibroblast, read-out: IC50 (±SD), HDF
How it was run: as §3

[8] = tested on: CCRF-CEM, CEM (human T lymphoblastic leukemia); settings: cited from earlier work
[9] = tested on: HeLa, KB, MCF-7, A-549, PC-3 and SKOV-3; assay: MTT assay, summary over the cancer cell lines; type: cell-based, human; settings: classification by IC50 (good ≤ 10 μM, moderate 10–30 μM, ref 83)
Description: All the cell lines and mediums were obtained from the American Type Culture Collection (ATCC) supplied by LGC-Standards (Lomianki, Poland). Human cancer cell lines were cultured as follows: HeLa (human cervix carcinoma) and KB (human oral squamous carcinoma) lines were cultured in DMEM (Dulbecco’s Modified Eagle’s Medium); MCF-7 (human breast carcinoma) and A-549 (human lung carcinoma) were cultured in RPMI 1640 medium; PC-3 (human prostate carcinoma) was cultured in F-12K medium; SKOV-3 (human ovarian cystadenocarcinoma) was cultured in McCoy’s modified medium; HDF (human normal dermal fibroblasts) was cultured in Fibroblast Basal Medium. Each medium was supplemented with 10% fetal bovine serum, 1% L- glutamine and 1% penicillin/streptomycin solution. The cell lines were kept in an incubator at 37 °C.
All the tested cell lines (HeLa, KB, MCF-7, A-549, PC-3, SKOV-3 and HDF) were subjected to MTT assay. In short, this assay is based on the reaction between mitochondria enzymes (dehydrogenases) of tested cell lines and 3-(4,5-dimethylthiazol-2-yl)-2,5-diphenyltetrazolium bromide (MTT). The final product of this reaction gives violet formazan crystals. The number of live cells is proportional to the amount of formazan and is represented by the violet dye reagent. The details of the experiments are given in [19].

[10] = tested on: HPCC (human cervical carcinoma); settings: ref 47; read-out: anticancer IC50 (HPCC); cited from earlier work
[11] = tested on: TE-671 (human rhabdomyosarcoma–medulloblastoma); settings: ref 47; read-out: anticancer IC50 (TE-671); cited from earlier work

C=C(C)[C@@H]1CC[C@]2(CO)CC[C@]3(C)[C@H](CC[C@@H]4[C@@]5(C)CC[C@H](O)C(C)(C)[C@@H]5CC[C@]43C)[C@@H]12 [5a, betulin]
IC50 [1]: 6.4 µM
IC50 (C-6): 5.9 µM
Apoptotic index (AI), PC-3 (PC-3): 5.82 (0.03)
IC50 ([2]; ref 47): 5.2 µM
anticancer IC50 (T-47D) ([2]; ref 49): 32.4 µg/mL
IC50 ([2]; ref 49): 73.2 µM
IC50 ([3]; Homo sapiens, A549, MTT assay, A-549, read-out: IC50 (±SD), A-549): 19.6 µM
Selectivity index (SI), A-549 ([3]; IC50 HDF / IC50 A-549): 0.81
mean apoptotic index (SKOV-3; 0.1 µg/mL, mean over SKOV-3 and PC-3): 5.54
Apoptotic index (AI), SKOV-3 (SKOV-3; SKOV-3, 4 h incubation, enrichment of mono- and oligonucleosomes vs negative control): 5.26 (0.03)
IC50 ([4]; Homo sapiens, SK-OV-3, MTT assay, SKOV-3, read-out: IC50 (±SD), SKOV-3): 6.95 µM
Selectivity index (SI), SKOV-3 ([4]; IC50 HDF / IC50 SKOV-3): 2.27
IC50 [5]: 6.7 µM
IC50 [6]: 6.8 µM
IC50 [7]: 15.8 µM
IC50 ([8]; ref 26, read-out: anticancer IC50 (CCRF-CEM, CEM)): 250 µM
anticancer IC50 (CCRF/CEM) ([8]; ref 49): 10.9 µg/mL
IC50 ([8]; ref 49, read-out: anticancer IC50 (CCRF/CEM)): 24.6 µM
cytotoxic activity class [9]: high or moderately high activity
IC50 [10]: 3.4 µM
IC50 [11]: 10.3 µM
